Measurements as given in patent US6960594B2, “Thiophene and furan 2,5-dicarboxamides useful in the treatment of cancer” (Shire BioChem Inc., priority 1998, dated 2005).

What was measured:
HMVEC = test: Cell proliferation and cytotoxicity MTT assay, HMVEC; assay type: cell-based; conditions: HMVEC, 72 hours culture
Protocol: (§1) The wells of microtiter plates were seeded with 2000 cells/well T24, 2500 cells/well HT29 or 5000 cells/well HMVEC (Cell Systems) in 100 uL, followed by an overnight culture for cell adhesion. The next day, the media is supplemented with 100 uL of 10-fold dilution of compound of interest starting at 10 uM. Following culture for 72 hours, 3-(4,5-dimethyl-2-thiazolyl)-2,5-diphenyltetrazolium bromide (MTT; Sigma) at 2 mg/mL was added to each well (50 uL/well) and further incubated for 4 hours at 37° C. The medium was flicked out and 200 uL of a 1:1 solution of ethanol:acetone followed by 25 uL of glycine buffer (0.1 M glycine, 0.1M NaCl, pH 10.5) is added and the color measured by the absorbance at 570 nm.

α5β1 = biological target: T1, α5β1 (Homo sapiens, UniProt P05556+P08648); test: Cell adhesion assay, K562 on fibronectin; assay type: cell-based; conditions: K562 cells, adhesion to fibronectin, 1 hour
T1 construct: Cells HT29, K562, or K562 transfected with αvβ3; endogenous in cells; host or cells: K562
Protocol: (§2) The wells of 96-well plates (Immunolon) were coated, by incubation overnight at 4° C., with 5 ug/mL vitronectin, 2 ug/mL osteopontin, or fibronectin or 10 mg/mL BSA in PBS. The protein solution was flicked out and the wells were blocked with 10 mg/mL BSA (0.1 mL) for 1-2 hours at 37° C. Cells HT29, K562, or K562 transfected with αvβ3 (Blystone et al., 1994) were loaded with a fluorescent marker, 5-chloromethylfluorescein diacetate (Molecular Probes, Eugene, Oreg.) for 1 hour at 37° C., then incubated in fresh medium without the fluorescent marker for 1 hour. Cells were lifted with trypsin-EDTA and washed two times with Hank's balanced salt solution minus cations (Sigma) supplemented with 1 mM MgCl2 Cells (75,000 cells/well) were added to coated plates in triplicate and allowed to attach at 37° C. for 1 hour in the presence or absence of specific antibodies (5 ug/mL) or 10-fold dilutions of compounds of interest starting at 10 uM. Nonadherent cells were removed by gentle washing twice with PBS. The adherent cells were solubilized with 1% triton x-100 and detected using a fluorescence plate reader (DYNEX Technologies). The number of attached cells was calculated based upon standard curves for each cell line used in the experiment. Non-specific cell attachment (attachment to wells coated with BSA) was always less than 5%.

αvβ3 = biological target: T2, αvβ3 (Homo sapiens, UniProt P05106+P06756); test: Cell adhesion assay, K562-tr on osteopontin; assay type: cell-based
T2 construct: expressed in transfected cells; host or cells: K562
Protocol: as §2, with “Cells HT29, K562, or K562 transfected with αvβ3 (Blystone et al., 1994) were loaded with a fluorescent marker, 5-chloromethylfluorescein diacetate (Molecular Probes, Eugene, Oreg.) for 1 hour at 37° C., then incubated in fresh medium without the fluorescent marker for 1 hour.” left out, “experiment.” for “experiment. Non-specific cell attachment (attachment to wells coated with BSA) was always less than 5%.”

GP IIb-IIIa (αIIbβ3) = biological target: T3, GP IIb-IIIa (αIIbβ3) (Homo sapiens, UniProt P05106+P08514); test: Fibrinogen binding to immobilized GP IIb-IIIa (αIIbβ3)
T3 construct: purchased Calbiochem
Protocol: (§3) The wells of plastic microtiter plates were coated overnight at 4° C. with purified active αIIbβ3 (Calbiochem) or placental αvβ3 at 0.5 ug/mL (100 uL/well) in a buffer containing 150 mM NaCl, 20 mM Tris, pH 7.4, 1 mM MgCl2, 0.2 mM MnCl2, and including 1 mM CaCl2 for αIIbβ3. Blocking of nonspecific sites was achieved by incubating the wells with 35 mg/mL bovine serum albumin (BSA) for at least 2 hours at 37° C. Biotinylated-fibrinogen (10 nM) was added in 0.2 mL binding buffer (100 mM NaCl, 50 mM Tris, pH 7.4, 1 mM MgCl2, 0.2 mM MnCl2 and 1 mg/mL BSA including 1 mM CaCl2 for αIIbβ3) to the wells in triplicate in the absence or presence of increasing concentrations of compounds of interest (0.001-100 uM) and further incubated for 2 hours at 37° C. Nonbound fibrinogen was removed by five washes with binding buffer. Avidin conjugated to alkaline phosphatase (Sigma), diluted in binding buffer, was added and incubated for two hours at 37° C. The plates were washed five times with binding buffer, and after addition of the substrate PNPP (Pierce), the enzyme activity was measured by the absorbance at 405 nm.

placental αvβ3 = biological target: T4, placental αvβ3 (Homo sapiens, UniProt P05106+P06756); test: Fibrinogen binding to immobilized αvβ3
T4 construct: placental αvβ3 at 0.5 ug/mL; from tissue; host or cells: placenta
Protocol: as §3

HT29 = test: Cell proliferation and cytotoxicity MTT assay, HT29; assay type: cell-based; conditions: Homo sapiens, HT-29, 72 hours culture
Protocol: as §1

T3 sequence (P08514 32-887 limits assumed): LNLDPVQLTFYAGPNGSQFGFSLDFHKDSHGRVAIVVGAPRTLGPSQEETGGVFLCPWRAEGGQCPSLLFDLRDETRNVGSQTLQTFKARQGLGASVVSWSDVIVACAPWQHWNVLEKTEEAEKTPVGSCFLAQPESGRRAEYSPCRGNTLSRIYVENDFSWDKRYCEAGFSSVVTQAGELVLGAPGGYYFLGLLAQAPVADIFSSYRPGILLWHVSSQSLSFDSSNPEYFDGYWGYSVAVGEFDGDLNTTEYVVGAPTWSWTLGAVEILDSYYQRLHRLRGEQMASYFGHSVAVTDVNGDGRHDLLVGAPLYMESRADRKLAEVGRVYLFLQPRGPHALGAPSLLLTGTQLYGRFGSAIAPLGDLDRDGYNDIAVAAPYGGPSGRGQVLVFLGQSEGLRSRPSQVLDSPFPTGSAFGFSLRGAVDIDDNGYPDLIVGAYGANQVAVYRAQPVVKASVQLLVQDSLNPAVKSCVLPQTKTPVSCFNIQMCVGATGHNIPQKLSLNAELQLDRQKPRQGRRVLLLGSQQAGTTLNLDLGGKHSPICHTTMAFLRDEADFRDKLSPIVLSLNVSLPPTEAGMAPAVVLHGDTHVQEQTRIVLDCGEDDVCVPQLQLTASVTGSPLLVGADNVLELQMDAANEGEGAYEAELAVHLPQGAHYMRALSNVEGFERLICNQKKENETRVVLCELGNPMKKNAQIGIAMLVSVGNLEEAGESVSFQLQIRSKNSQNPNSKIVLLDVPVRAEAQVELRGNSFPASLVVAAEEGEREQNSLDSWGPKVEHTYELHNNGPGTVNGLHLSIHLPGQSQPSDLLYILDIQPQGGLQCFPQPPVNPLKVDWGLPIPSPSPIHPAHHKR
T3 sequence (P08514 891-1039 partner limits assumed): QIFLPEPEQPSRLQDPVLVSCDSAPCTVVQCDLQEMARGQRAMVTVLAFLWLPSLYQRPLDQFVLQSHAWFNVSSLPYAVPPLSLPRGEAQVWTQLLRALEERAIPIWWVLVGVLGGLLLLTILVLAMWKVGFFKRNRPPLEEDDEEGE
T3 sequence (P05106 27-788): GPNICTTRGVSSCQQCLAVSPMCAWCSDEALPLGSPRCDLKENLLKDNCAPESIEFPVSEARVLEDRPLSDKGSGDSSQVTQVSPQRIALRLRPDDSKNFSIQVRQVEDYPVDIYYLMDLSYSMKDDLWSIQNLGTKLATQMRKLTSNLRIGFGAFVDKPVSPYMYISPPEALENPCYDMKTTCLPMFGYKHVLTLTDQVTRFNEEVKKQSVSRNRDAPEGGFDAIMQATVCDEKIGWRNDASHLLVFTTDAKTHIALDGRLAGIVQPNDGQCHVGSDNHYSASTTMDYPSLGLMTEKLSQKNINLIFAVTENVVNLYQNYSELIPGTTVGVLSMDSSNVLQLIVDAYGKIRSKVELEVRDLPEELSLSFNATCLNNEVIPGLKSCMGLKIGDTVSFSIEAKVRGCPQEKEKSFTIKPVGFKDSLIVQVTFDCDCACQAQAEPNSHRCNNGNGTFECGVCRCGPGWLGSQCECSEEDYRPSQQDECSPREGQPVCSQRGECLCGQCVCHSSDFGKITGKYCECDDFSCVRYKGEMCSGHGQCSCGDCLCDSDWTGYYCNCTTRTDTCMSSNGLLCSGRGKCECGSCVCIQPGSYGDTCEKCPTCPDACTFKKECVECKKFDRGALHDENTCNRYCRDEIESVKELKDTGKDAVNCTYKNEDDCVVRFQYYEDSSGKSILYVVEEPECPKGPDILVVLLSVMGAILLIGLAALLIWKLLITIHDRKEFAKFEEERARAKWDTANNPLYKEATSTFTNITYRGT
T2 sequence (P06756 31-889 limits assumed): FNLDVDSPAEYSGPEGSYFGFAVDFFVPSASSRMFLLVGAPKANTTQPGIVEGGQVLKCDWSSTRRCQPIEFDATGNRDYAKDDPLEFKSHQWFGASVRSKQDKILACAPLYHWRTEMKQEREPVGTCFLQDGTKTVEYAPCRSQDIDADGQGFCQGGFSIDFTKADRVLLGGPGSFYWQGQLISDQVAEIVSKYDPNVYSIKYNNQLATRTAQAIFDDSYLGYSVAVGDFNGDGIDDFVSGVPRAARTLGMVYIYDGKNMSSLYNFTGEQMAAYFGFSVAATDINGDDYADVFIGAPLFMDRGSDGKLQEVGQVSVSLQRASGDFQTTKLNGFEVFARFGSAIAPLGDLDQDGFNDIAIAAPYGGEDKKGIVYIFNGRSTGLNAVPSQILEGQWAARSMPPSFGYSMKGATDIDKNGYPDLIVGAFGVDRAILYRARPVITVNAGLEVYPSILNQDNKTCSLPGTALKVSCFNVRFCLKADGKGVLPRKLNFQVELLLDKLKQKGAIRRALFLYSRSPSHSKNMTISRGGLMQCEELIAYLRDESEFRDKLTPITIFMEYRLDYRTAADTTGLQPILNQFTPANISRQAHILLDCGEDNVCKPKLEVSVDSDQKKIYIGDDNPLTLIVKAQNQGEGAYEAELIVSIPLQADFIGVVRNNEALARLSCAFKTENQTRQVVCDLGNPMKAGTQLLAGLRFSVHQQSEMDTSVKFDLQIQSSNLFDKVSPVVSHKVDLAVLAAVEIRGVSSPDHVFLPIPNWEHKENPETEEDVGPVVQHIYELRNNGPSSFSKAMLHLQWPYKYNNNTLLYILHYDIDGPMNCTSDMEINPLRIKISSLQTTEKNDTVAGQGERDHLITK
T2 sequence (P06756 891-1048 partner limits assumed): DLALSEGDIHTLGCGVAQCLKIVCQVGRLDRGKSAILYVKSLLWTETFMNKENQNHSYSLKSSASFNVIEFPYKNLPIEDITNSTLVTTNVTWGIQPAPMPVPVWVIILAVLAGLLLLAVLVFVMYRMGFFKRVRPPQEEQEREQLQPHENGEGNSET
T2 sequence (P05106 27-788): as the sequence (P05106 27-788) above
T4 sequence (P06756 31-889 limits assumed): as the sequence (P06756 31-889 limits assumed) above
T4 sequence (P06756 891-1048 partner limits assumed): as the sequence (P06756 891-1048 partner limits assumed) above
T4 sequence (P05106 27-788): as the sequence (P05106 27-788) above
T1 sequence (P08648 42-894 limits assumed): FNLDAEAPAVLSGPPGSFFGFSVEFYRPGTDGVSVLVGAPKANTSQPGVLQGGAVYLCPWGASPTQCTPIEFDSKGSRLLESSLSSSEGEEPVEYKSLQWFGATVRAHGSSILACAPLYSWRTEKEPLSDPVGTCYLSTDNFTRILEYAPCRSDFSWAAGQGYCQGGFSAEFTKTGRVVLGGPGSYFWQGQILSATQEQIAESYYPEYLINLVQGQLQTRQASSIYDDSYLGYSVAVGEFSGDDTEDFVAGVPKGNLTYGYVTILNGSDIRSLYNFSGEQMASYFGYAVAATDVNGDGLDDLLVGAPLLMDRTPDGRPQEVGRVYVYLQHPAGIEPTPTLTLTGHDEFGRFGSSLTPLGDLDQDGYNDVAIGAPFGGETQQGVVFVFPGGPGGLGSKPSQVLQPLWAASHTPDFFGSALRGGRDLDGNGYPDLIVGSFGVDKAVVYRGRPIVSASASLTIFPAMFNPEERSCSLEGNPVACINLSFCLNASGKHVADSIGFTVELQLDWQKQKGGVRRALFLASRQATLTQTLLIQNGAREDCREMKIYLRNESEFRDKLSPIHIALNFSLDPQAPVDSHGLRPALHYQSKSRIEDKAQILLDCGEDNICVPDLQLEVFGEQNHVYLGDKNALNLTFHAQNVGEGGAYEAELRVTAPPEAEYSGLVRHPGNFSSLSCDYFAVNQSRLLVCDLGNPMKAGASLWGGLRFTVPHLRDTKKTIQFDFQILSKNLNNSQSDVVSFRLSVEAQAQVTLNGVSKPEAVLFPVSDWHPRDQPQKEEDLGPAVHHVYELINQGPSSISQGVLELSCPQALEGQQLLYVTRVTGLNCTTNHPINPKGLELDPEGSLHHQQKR
T1 sequence (P08648 895-1049 partner limits assumed): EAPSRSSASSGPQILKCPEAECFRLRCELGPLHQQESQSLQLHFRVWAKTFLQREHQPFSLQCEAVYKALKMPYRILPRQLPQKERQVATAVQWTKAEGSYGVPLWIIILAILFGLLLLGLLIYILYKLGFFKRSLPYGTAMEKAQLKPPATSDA
T1 sequence (P05556 21-798): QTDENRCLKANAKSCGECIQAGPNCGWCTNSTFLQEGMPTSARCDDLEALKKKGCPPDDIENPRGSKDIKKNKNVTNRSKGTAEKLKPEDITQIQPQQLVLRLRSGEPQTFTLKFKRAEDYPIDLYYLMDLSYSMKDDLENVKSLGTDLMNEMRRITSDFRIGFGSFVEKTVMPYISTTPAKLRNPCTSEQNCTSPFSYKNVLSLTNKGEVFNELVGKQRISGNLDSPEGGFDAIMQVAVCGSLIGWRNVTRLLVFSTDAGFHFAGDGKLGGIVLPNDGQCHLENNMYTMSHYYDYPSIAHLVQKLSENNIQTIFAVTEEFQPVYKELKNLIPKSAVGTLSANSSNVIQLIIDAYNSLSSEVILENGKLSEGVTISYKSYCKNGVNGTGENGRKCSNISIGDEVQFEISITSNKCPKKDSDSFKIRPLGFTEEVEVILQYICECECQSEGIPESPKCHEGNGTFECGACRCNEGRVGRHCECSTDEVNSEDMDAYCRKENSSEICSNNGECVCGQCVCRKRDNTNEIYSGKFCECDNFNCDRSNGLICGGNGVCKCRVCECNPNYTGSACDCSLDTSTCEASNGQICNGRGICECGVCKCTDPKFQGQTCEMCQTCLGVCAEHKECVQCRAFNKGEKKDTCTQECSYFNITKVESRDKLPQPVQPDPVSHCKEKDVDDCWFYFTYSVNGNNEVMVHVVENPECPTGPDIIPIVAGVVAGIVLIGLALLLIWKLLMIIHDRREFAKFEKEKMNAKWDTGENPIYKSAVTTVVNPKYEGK

Question: For `NCCCNC(=O)c1ccc(C(=O)NC(CC(=O)O)c2ccccc2)s1.O=C(O)C(F)(F)F` (stereo not drawn) [Compound VII, 3-{[5-(3-Amino-propylcarbamoyl)-thiophene-2-carbonyl]-amino}-3-phenyl-propionic acid trifluoroacetic acid salt], which IC50 (HMVEC) is on record?
Answer: > 10 µM

Question: And the IC50 (α5β1)?
Answer: > 10 µM

Question: And the IC50 (αvβ3)?
Answer: > 10 µM

Question: And the IC50 (GP IIb-IIIa (αIIbβ3))?
Answer: 13.7 µM

Question: What about the IC50 (placental αvβ3) of the same compound?
Answer: 6.6 µM

Question: What about the IC50 (HT29) of the same compound?
Answer: > 10 µM
